In patent publication US4272541A, “7,8 and 7-8 Substituted 4,5α-epoxymorphinan-6-one compounds, and methods of treating pain and drug dependence with them” (Miles Laboratories, Inc., priority 1979, dated 1981):

Test system: Anti-Peristaltic Effects Of Morphine
Test: Charcoal meal test, antagonist test (ability to antagonize the anti-peristaltic effects of morphine)
Assay type: in vivo, mice (albino females, CFW strain)
Details: morphine 8 mg/kg, naloxone 10 mg/kg = 100%
Protocol: The agonist and antagonist effects of TR-5088, reference compound TR-5128 and prior art compound 17-cyclopropylmethyl-4,5α-epoxy-3-hydroxymorphinan-6-one (TR-5118) were determined in mice by a modified procedure of Rodriguez and Villarreal (report on the 36th Annual Scientific Meeting Committee on the Problems of Drug Dependance, Mar. 10-14, 1974, Mexico City, D.F.).
Subjects and Procedure for Measuring Gastrointestinal Peristaltic Activity. The mice used were albino females of the CFW strain, weighing between 20 and 25 grams; ten animals per dose were used for each compound tested in each experiment except 20 animals were used in the tests of Compound 5088. Gastrointestinal peristaltic activity was measured using a modification of the charcoal meal method described by Macht and Baba-Gose (1931). Mice were deprived of food 18 hours before the administration of the charcoal meal. […] This meal consisted of an aqueous suspension of 5% powdered tragacanth and 5% animal charcoal and was freshly made for each experiment. The charcoal meal was administered by gastric intubation, 0.25 ml per mouse. The animals were sacrificed by cervical dislocation. After the sacrifice, the whole gastrointestinal tract was rapidly removed and freed of epiploon. Then the entire length of intestine was hung upon a small hook at the level of the pylorus. In order to standardize the tension of the intestine, a 5 g weight was hung at the level of the ileocecal valve. Gastrointestinal peristaltic activity was then determined by measuring the distance the charcoal traveled from the pylorus.
Drugs. Morphine hydrochloride, naloxone hydrochloride or test compounds were each dissolved in distilled water with their concentrations adjusted so that the volume of injection was 10 ml/kg. Doses are expressed in terms of the salts.
Determination of Ability of Test Compounds to Antagonize the Anti-Peristaltic Effects of Morphine (Antagonist test).
Morphine (8 mg/kg) was given s.c. at time 0, charcoal meal was given p.o. at time 15 min, naloxone or test compound was given s.c. at 30 min, and the animals were sacrificed at time 45 min. Naloxone is the standard of reference and its maximum effect (at 10 mg/kg) to antagonize the antiperistaltic effects of morphine is assigned the value of 100%; test compounds are expressed as % of maximum naloxone antagonism.

C=CCN1CC[C@]23c4c5ccc(O)c4O[C@H]2C(=O)CC[C@@]3(O)[C@H]1C5 [Naloxone]
Percent Reversal (S.E.) Of Anti-Peristaltic Effects Of Morphine (0.01 mg/kg s.c.): 14.5(±3.0) % | Percent Reversal (S.E.) Of Anti-Peristaltic Effects Of Morphine (0.10 mg/kg s.c.): 39.1(±4.2) % | Percent Reversal (S.E.) Of Anti-Peristaltic Effects Of Morphine (1.0 mg/kg s.c.): 69.8(±8.0) % | Percent Reversal (S.E.) Of Anti-Peristaltic Effects Of Morphine (10.0 mg/kg s.c.): 100.0(±5.9) %
